Measured values reported in patent publication US20240408169A1 (priority 2023, published 2024).
Like-named read-outs stand apart in the source and are kept apart here. *1 amine or outer side, *2 acyl side, *3 side chain or, on linkers, in order; H or OH if unused. Where a SMILES comes first, the peptide text is derived from it. Bridges are numbered along the chain shown (N, C = ends). [ ]: non-standard residue; d: D form. The star is where a group is joined. X98 = CN1CC2(C1)OCc1cc(-c3ccc(Cl)cc3C[C@@H](C(=O)[*:2])N(C)[*:1])ccc12; X90 = CC(=O)N1CC=C(c2ccc(Cl)cc2C[C@@H](C(=O)[*:2])N(C)[*:1])CC1; X216 = CN1CCC(c2ccc(Cl)cc2C[C@@H](C(=O)[*:2])N(C)[*:1])=CC1=O; NMehhhLys(Me) = CN([C@@H](CCCCCCCN(C)[*:3])C(=O)[*:2])[*:1]; X215 = Cc1noc(C)c1-c1ccc(Cl)cc1C[C@@H](C(=O)[*:2])N(C)[*:1]; X66 = CN([C@@H](Cc1cc(Cl)ccc1-c1cccnc1)C(=O)[*:2])[*:1]; NMe(hhhLys) = CN([C@@H](CCCCCCCN[*:3])C(=O)[*:2])[*:1]; NMe3Pal(2-OMe,5-Cl) = CN[C@@H](Cc1cc(Cl)cnc1OC)C(=O)O; X213 = CN([C@@H](Cc1cc(Cl)cc2c1cnn2C)C(=O)[*:2])[*:1]; X214 = CC(C)Cc1ccc(Cl)cc1C[C@@H](C(=O)[*:2])N(C)[*:1]; cBuCO(3,3-F2-1-CF3) = O=C(C1(C(F)(F)F)CC(F)(F)C1)*; NMePhe(2,5-Cl2) = CN[C@@H](Cc1cc(Cl)ccc1Cl)C(=O)O; Pro(trans-4-F) = O=C(O)[C@@H]1C[C@@H](F)CN1; Gly(cPr) = N[C@H](C(=O)O)C1CC1

Key:
[1] = molecular target: T1, CyclinA2/CDK2 (Homo sapiens, UniProt P20248); assay: Fluorescence Polarization (FP) competitive binding assay, Cyclin A2/Cdk2;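 also: plates equilibrated two hours at room temperature before polarization reading, IC50 fitted from eight-concentration compound titration curves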
T1 construct: purchased CRELUX Protein Services

[2] = molecular target: T2, CyclinB1/CDK1 (Homo sapiens, UniProt P14635); assay: Fluorescence Polarization (FP) competitive binding assay, Cyclin B1/Cdk1;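 also: fluorescence polarization read after equilibration at room temperature, with IC50 taken from serially diluted dose-response curves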
T2 construct: purchased Eurofins, discovery 14-450

[3] = molecular target: T3, CyclinE1/CDK2 (Homo sapiens, UniProt P24864); assay: Fluorescence Polarization (FP) competitive binding assay, Cyclin E1/Cdk2;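 also: readings taken after two-hour equilibration at room temperature in HEPES buffer with NaCl, DTT, NP-40 and BSA, IC50 fitted from eight-concentration serial dilution series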
T3 construct: purchased Eurofins, discovery 14-475

[4] = system: NCI-H1048 cells; assay: MTT proliferation assay, NCI-H1048; type: cell-based; conditions: 5 days compound exposure, 1:3 serial dilution starting at 10 μM;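 also: Dose-response in 96-well plates over 8 or 10 concentration points, with exposure spanning 3-4 cell doublings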
[5] = system: OVCAR3 cells; assay: MTT proliferation assay, OVCAR3; type: cell-based; conditions: 5 days compound exposure, 1:3 serial dilution starting at 10 μM;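 also: compound given as an 8- or 10-point series, one day after plating, with exposure covering roughly 3-4 cell doublings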
[6] = 8 nM Cyclin A2/Cdk2, 2 nM FAM probe, average of 2-3 independent experiments, read-out: Cyclin A FP IC50
[7] = 10 nM Cyclin B1/Cdk1, 2 nM FAM probe; average of 2-3 independent experiments; read-out: Cyclin B FP IC50
[8] = 10 nM Cyclin E1/Cdk2, 2 nM FAM probe, average of 2-3 independent experiments, read-out: Cyclin E FP IC50
[9] = read-out: Cyclin B FP IC50; 10 nM Cyclin B1/Cdk1, 2 nM FAM probe; average of 2-3 independent experiments

Compound | IC50 [1, 6] [nM] | IC50 [2, 7] [nM] | IC50 [3, 8] [nM] | GI50 [4] [nM] | GI50 [5] [nM] | IC50 [1] [nM] | IC50 [2, 9] [nM] | IC50 [3] [nM] | IC50 ([3]; Cyclin E FP IC50, 10 nM Cyclin E1/Cdk2, 2 nM FAM probe, average of 2-3 independent experiments) [nM]
CC(C)C[C@@H]1NC(=O)[C@@H](N(C)C(=O)[C@@H](NC(=O)[C@@H]2C[C@@H](F)CN2C(=O)C2(C(F)(F)F)CC2)C2CC2)CC=CCCCCNC(=O)[C@H](Cc2cc(Cl)ccc2Cl)N(C)C1=O (single isomer, unassigned) [Example 5-P1] | 790 | 20 | 700 | 390 | 690 | – | – | – | –
CC(C)C[C@@H]1NC(=O)[C@@H](N(C)C(=O)[C@@H](NC(=O)[C@@H]2C[C@@H](F)CN2C(=O)C2(C(F)(F)F)CC2)C2CC2)CC=CCCCCNC(=O)[C@H](Cc2cc(Cl)ccc2Cl)N(C)C1=O (single isomer, unassigned) [Example 5-P2] | 560 | 20 | 460 | 290 | 560 | – | – | – | –
CC(C)C[C@@H]1NC(=O)[C@@H](N(C)C(=O)[C@@H](NC(=O)[C@@H]2C[C@@H](F)CN2C(=O)C2(C(F)(F)F)CC3(CCC3)C2)C2CC2)CC=CCCCCNC(=O)[C@H](Cc2cc(Cl)ccc2Cl)N(C)C1=O (single isomer, unassigned) [Example 16-P1] | – | 20 | 3150 | 340 | 880 | – | – | – | –
CC(C)C[C@@H]1NC(=O)[C@@H](N(C)C(=O)[C@@H](NC(=O)[C@@H]2C[C@@H](F)CN2C(=O)C2(C(F)(F)F)CC3(CCC3)C2)C2CC2)CC=CCCCCNC(=O)[C@H](Cc2cc(Cl)ccc2Cl)N(C)C1=O (single isomer, unassigned) [Example 16-P2] | – | 20 | 2710 | 350 | 990 | – | – | – | –
CC(=O)N1C2CCC1CC(c1ccc(F)cc1C[C@H]1C(=O)N(C)CCCCCCC[C@H](N(C)C(=O)[C@@H](NC(=O)[C@@H]3C[C@@H](F)CN3C(=O)C3(C(F)(F)F)CC(F)(F)C3)C3CC3)C(=O)N[C@@H](CC(C)C)C(=O)N1C)C2 (single isomer, unassigned) [Example 59-P1] | 120 | 20 | 850 | 20 | 20 | – | – | – | –
CC(=O)N1C2CCC1CC(c1ccc(F)cc1C[C@H]1C(=O)N(C)CCCCCCC[C@H](N(C)C(=O)[C@@H](NC(=O)[C@@H]3C[C@@H](F)CN3C(=O)C3(C(F)(F)F)CC(F)(F)C3)C3CC3)C(=O)N[C@@H](CC(C)C)C(=O)N1C)C2 (single isomer, unassigned) [Example 59-P2] | 180 | 20 | 870 | 60 | 50 | – | – | – | –
CC(C)C[C@@H]1NC(=O)[C@@H](N(C)C(=O)[C@@H](NC(=O)[C@@H]2C[C@@H](F)CN2C(=O)C2(C(F)(F)F)CC(F)(F)C2)C2CC2)CC=CCCCCNC(=O)[C@H](Cc2cc(Cl)cnc2OC2CC2)N(C)C1=O (single isomer, unassigned) [Example 102-P1] | 310 | 20 | 1110 | 350 | 810 | – | – | – | –
CC(C)C[C@@H]1NC(=O)[C@@H](N(C)C(=O)[C@@H](NC(=O)[C@@H]2C[C@@H](F)CN2C(=O)C2(C(F)(F)F)CC(F)(F)C2)C2CC2)CC=CCCCCNC(=O)[C@H](Cc2cc(Cl)cnc2OC2CC2)N(C)C1=O (single isomer, unassigned) [Example 102-P2] | 120 | 20 | 310 | 80 | 130 | – | – | – | –
CC(C)C[C@@H]1NC(=O)[C@@H](N(C)C(=O)[C@@H](NC(=O)[C@@H]2C[C@@H](F)CN2C(=O)C2(C(F)(F)F)CC(F)(F)C2)C2CC2)CCCCCCCNC(=O)[C@H](Cc2cc(Cl)ccc2Cl)N(C)C1=O [Example 7] ({cBuCO(3,3-F2-1-CF3)}-[Pro(trans-4-F)][Gly(cPr)][NMe(hhhLys)]L[NMePhe(2,5-Cl2)]; lactam 3-C) | – | 20 | 290 | 20 | 50 | – | – | – | –
CC(C)C[C@@H]1NC(=O)[C@@H](N(C)C(=O)[C@@H](NC(=O)[C@@H]2C[C@@H](F)CN2C(=O)C2(C(F)(F)F)CC(F)(F)C2)C2CC2)CC=CCCCCN(C)C(=O)[C@H](Cc2cc(Cl)ccc2Cl)N(C)C1=O [Example 14] | – | 20 | 340 | 100 | 200 | – | – | – | –
CC(C)C[C@@H]1NC(=O)[C@@H](N(C)C(=O)[C@@H](NC(=O)[C@@H]2C[C@@H](F)CN2C(=O)C2(C(F)(F)F)CC(F)(F)C2)C2CC2)CC=CCCCCNC(=O)[C@H](Cc2cc(Cl)ccc2-c2cccc(Cl)c2)N(C)C1=O [Example 19] | 430 | 20 | – | 550 | 1760 | – | – | – | –
CC(C)C[C@@H]1NC(=O)[C@@H](N(C)C(=O)[C@@H](NC(=O)[C@@H]2C[C@@H](F)CN2C(=O)C2(C(F)(F)F)CC(F)(F)C2)C2CC2)CC=CCCCCNC(=O)[C@H](Cc2cc(Cl)ccc2C2=CCC(F)(F)CC2)N(C)C1=O [Example 22] | 210 | 20 | – | 1100 | 1800 | – | – | – | –
CC(=O)N1CC=C(c2ccc(Cl)cc2C[C@H]2C(=O)N(C)CCCCCCC[C@H](N(C)C(=O)[C@@H](NC(=O)[C@@H]3C[C@@H](F)CN3C(=O)C3(C(F)(F)F)CC(F)(F)C3)C3CC3)C(=O)N[C@@H](CC(C)C)C(=O)N2C)CC1 [Example 50, (2S,4R)—N—((S)-2-(((3S,6S,9S)-3-(2-(1-acetyl-1,2,3,6-tetrahydropyridin-4-yl)-5-chlorobenzyl)-6-isobutyl-1,4-dimethyl-2,5,8-trioxo-1,4,7-triazacyclohexadecan-9-yl)(methyl)amino)-1-cyclopropyl-2-oxoethyl)-1-(3,3-difluoro-1-(trifluoromethyl)cyclobutane-1-carbonyl)-4-fluoropyrrolidine-2-carboxamide] ({cBuCO(3,3-F2-1-CF3)}-[Pro(trans-4-F)][Gly(cPr)][NMehhhLys(Me)]L[X90]; lactam 3-C) | – | 20 | 1220 | 10 | 10 | – | – | – | –
CC(C)Cc1ccc(Cl)cc1C[C@H]1C(=O)NCCCCCCC[C@H](N(C)C(=O)[C@@H](NC(=O)[C@@H]2C[C@@H](F)CN2C(=O)C2(C(F)(F)F)CC(F)(F)C2)C2CC2)C(=O)N[C@@H](CC(C)C)C(=O)N1C [Example 64] ({cBuCO(3,3-F2-1-CF3)}-[Pro(trans-4-F)][Gly(cPr)][NMe(hhhLys)]L[X214]; lactam 3-C) | 380 | 20 | – | 510 | 1240 | – | – | – | –
CC(C)C[C@@H]1NC(=O)[C@@H](N(C)C(=O)[C@@H](NC(=O)[C@@H]2C[C@@H](F)CN2C(=O)C2(C(F)(F)F)CC(F)(F)C2)C2CC2)CCCCCCCN(C)C(=O)[C@H](Cc2cc(Cl)ccc2-c2cccnc2)N(C)C1=O [Example 196] ({cBuCO(3,3-F2-1-CF3)}-[Pro(trans-4-F)][Gly(cPr)][NMehhhLys(Me)]L[X66]; lactam 3-C) | – | 20 | 740 | 10 | 10 | – | – | – | –
Cc1noc(C)c1-c1ccc(Cl)cc1C[C@H]1C(=O)N(C)CCCCCCC[C@H](N(C)C(=O)[C@@H](NC(=O)[C@@H]2C[C@@H](F)CN2C(=O)C2(C(F)(F)F)CC(F)(F)C2)C2CC2)C(=O)N[C@@H](CC(C)C)C(=O)N1C [Example 210] ({cBuCO(3,3-F2-1-CF3)}-[Pro(trans-4-F)][Gly(cPr)][NMehhhLys(Me)]L[X215]; lactam 3-C) | – | – | – | 100 | 110 | 420 | 20 | – | –
COc1ncc(Cl)cc1C[C@H]1C(=O)N(C)CCCCCCC[C@H](N(C)C(=O)[C@@H](NC(=O)[C@@H]2C[C@@H](F)CN2C(=O)C2(C(F)(F)F)CC(F)(F)C2)C2CC2)C(=O)N[C@@H](CC(C)C)C(=O)N1C [Example 222] ({cBuCO(3,3-F2-1-CF3)}-[Pro(trans-4-F)][Gly(cPr)][NMehhhLys(Me)]L[NMe3Pal(2-OMe,5-Cl)]; lactam 3-C) | – | – | – | 10 | 10 | – | 20 | 230 | –
CC(C)C[C@@H]1NC(=O)[C@@H](N(C)C(=O)[C@@H](NC(=O)[C@@H]2C[C@@H](F)CN2C(=O)C2(C(F)(F)F)CC(F)(F)C2)C2CC2)CCCCCCCN(C)C(=O)[C@H](Cc2cc(Cl)ccc2C2=CC(=O)N(C)CC2)N(C)C1=O [Example 237] ({cBuCO(3,3-F2-1-CF3)}-[Pro(trans-4-F)][Gly(cPr)][NMehhhLys(Me)]L[X216]; lactam 3-C) | – | – | – | 10 | 40 | – | 20 | – | 1140
CC(C)C[C@@H]1NC(=O)[C@@H](N(C)C(=O)[C@@H](NC(=O)[C@@H]2C[C@@H](F)CN2C(=O)C2(C(F)(F)F)CC(F)(F)C2)C2CC2)CCCCCCCNC(=O)[C@H](Cc2cc(Cl)ccc2-c2ccc3c(c2)COC32CN(C)C2)N(C)C1=O [Example 395] ({cBuCO(3,3-F2-1-CF3)}-[Pro(trans-4-F)][Gly(cPr)][NMe(hhhLys)]L[X98]; lactam 3-C) | – | – | – | 20 | 10 | – | – | – | –
CC(C)C[C@@H]1NC(=O)[C@@H](N(C)C(=O)[C@@H](NC(=O)[C@@H]2C[C@@H](F)CN2C(=O)C2(C(F)(F)F)CC(F)(F)C2)C2CC2)CCCCCCCN(C)C(=O)[C@H](Cc2cc(Cl)cc3c2cnn3C)N(C)C1=O [Example 424] ({cBuCO(3,3-F2-1-CF3)}-[Pro(trans-4-F)][Gly(cPr)][NMehhhLys(Me)]L[X213]; lactam 3-C) | – | 45.5 | 3820 | 2510 | 1780 | – | – | – | –
